In patent US20230192701A1, “BICYCLIC KINASE INHIBITORS AND USES THEREOF” (iOmx Therapeutics AG, priority 2020, published 2023):
Converted amounts (≈) assume the structure as drawn. “Also recorded” adds a separate entry of the source. Read-outs that look alike come from different tables or passages of the source.

Key:
PANC1 tumour cells = experiment: TNF-sensitised cell viability assay (CellTiter-Glo), PANC1; format: cell-based, human; details: for IC50: 100 ng/ml rHuTNF, 72 h
Protocol: (§1) Cell viability of HCT116 tumour cells was measured using the CellTiter-Glo (CTG) luminescent cell viability assay (Promega, Madison, USA) according to the manufacturer's protocol. In short, 1×10^3 HCT116 cells were seeded in a 384-well plate for 24 h and subsequently treated with different concentrations of compounds and 10 ng/ml rHuTNF for 72 h at 37° C. and 5% CO2. After incubation, CTG reagent was added to the wells and cells were lysed for 10 min. Read-out was performed using the Tecan reader with 0.1 sec counting time. TNF-induced cell killing in human PANC1 and murine MC38 tumour cells was measured analogously to the assay in human HCT116 cells, except that for the PANC1 assay 100 ng/ml rHuTNF and for the MC38 assay 100 ng/ml rMuTNF were used.

SIK2 = SIK2 (Homo sapiens, UniProt Q9H0K1); experiment: radiometric protein kinase assay (33PanQinase Activity Assay), SIK2; format: biochemical; details: for IC50: ATP 1.0 μM, substrate RBER-CHKtide
SIK2, sequence (Q9H0K1 whole entry): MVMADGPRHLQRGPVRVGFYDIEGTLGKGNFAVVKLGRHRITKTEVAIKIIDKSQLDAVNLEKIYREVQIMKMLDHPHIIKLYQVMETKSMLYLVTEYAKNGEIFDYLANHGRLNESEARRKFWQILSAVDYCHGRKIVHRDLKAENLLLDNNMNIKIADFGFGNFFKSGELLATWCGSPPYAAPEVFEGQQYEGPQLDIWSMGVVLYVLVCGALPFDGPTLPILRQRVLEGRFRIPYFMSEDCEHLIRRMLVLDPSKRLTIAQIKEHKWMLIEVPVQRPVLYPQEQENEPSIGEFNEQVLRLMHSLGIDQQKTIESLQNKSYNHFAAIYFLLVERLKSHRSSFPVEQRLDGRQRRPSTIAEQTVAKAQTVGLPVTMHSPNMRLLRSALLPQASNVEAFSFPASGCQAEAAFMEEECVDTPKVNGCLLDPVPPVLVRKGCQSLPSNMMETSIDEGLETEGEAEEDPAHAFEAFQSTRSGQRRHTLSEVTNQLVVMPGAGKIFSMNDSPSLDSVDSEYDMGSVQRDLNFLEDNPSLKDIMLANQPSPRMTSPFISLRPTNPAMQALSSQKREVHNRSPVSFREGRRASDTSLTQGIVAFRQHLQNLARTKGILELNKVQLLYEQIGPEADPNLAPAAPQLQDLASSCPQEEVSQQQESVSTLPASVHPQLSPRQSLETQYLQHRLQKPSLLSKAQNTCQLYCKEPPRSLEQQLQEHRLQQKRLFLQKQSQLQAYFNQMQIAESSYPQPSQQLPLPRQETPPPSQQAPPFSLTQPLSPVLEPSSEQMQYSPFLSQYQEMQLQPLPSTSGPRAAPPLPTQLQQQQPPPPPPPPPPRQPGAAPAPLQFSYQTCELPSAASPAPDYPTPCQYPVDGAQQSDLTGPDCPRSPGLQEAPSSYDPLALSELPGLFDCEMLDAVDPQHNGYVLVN
Protocol: (§2) The IC50s of the compounds against the SIK family of protein-serine/threonine kinases (SIK2 and SIK3) were determined as followed. Briefly, a radiometric protein kinase assay (33PanQinase® Activity Assay) was used for measuring the kinase activity of the two protein kinases. The kinase assays were performed in 96-well FlashPlates™ from PerkinElmer (Boston, Mass., USA) in a 50 uL reaction volume. The reaction cocktail was pipetted in four steps in the following order: • […] (standard buffer/[gamma-33P]-ATP) • 10 uL of ATP solution (in water) • 5 uL of test compound (in 10% DMSO) • 20 uL enzyme/substrate mix
(§3) The following amounts of enzyme and applicable substrate were used per well:
(§4) The reaction cocktails were incubated at 30 °C for 60 minutes. The reaction was stopped with 50 uL of 2% (v/v) H3PO4, plates were aspirated and washed two times with 200 μL 0.9% (w/v) NaCl. Incorporation of 33Pi was determined with a microplate scintillation counter (Microbeta, Wallac). All assays were performed with a BeckmanCoulter/SAGIAN™ Core System.

MC38 tumour cells = experiment: TNF-sensitised cell viability assay (CellTiter-Glo), MC38; format: cell-based, murine; details: 100 ng/ml rMuTNF, 72 h
Protocol: as §1

HCT116 and PANC1 = experiment: toxicity against the cell lines in the absence of TNF; format: cell-based; details: 0 ng/mL TNF, up to concentrations of 10 uM
Protocol: Typically, those compounds of Formula (I) tested were less toxic against the cell lines than the prior art compound PY1 when tested (eg, in the absence of TNF), especially against the human cell lines such as HCT116 (data not shown).
as §1

HCT116 tumour cells = experiment: TNF-sensitised cell viability assay (CellTiter-Glo), HCT116; format: cell-based, human; details: for IC50: 10 ng/ml rHuTNF, 72 h
Protocol: as §1

SIK3 = SIK3 (Homo sapiens, UniProt Q9Y2K2); experiment: radiometric protein kinase assay (33PanQinase Activity Assay), SIK3; format: biochemical; details: for IC50: ATP 1.0 μM, substrate RBER-CHKtide
SIK3, sequence (Q9Y2K2 whole entry): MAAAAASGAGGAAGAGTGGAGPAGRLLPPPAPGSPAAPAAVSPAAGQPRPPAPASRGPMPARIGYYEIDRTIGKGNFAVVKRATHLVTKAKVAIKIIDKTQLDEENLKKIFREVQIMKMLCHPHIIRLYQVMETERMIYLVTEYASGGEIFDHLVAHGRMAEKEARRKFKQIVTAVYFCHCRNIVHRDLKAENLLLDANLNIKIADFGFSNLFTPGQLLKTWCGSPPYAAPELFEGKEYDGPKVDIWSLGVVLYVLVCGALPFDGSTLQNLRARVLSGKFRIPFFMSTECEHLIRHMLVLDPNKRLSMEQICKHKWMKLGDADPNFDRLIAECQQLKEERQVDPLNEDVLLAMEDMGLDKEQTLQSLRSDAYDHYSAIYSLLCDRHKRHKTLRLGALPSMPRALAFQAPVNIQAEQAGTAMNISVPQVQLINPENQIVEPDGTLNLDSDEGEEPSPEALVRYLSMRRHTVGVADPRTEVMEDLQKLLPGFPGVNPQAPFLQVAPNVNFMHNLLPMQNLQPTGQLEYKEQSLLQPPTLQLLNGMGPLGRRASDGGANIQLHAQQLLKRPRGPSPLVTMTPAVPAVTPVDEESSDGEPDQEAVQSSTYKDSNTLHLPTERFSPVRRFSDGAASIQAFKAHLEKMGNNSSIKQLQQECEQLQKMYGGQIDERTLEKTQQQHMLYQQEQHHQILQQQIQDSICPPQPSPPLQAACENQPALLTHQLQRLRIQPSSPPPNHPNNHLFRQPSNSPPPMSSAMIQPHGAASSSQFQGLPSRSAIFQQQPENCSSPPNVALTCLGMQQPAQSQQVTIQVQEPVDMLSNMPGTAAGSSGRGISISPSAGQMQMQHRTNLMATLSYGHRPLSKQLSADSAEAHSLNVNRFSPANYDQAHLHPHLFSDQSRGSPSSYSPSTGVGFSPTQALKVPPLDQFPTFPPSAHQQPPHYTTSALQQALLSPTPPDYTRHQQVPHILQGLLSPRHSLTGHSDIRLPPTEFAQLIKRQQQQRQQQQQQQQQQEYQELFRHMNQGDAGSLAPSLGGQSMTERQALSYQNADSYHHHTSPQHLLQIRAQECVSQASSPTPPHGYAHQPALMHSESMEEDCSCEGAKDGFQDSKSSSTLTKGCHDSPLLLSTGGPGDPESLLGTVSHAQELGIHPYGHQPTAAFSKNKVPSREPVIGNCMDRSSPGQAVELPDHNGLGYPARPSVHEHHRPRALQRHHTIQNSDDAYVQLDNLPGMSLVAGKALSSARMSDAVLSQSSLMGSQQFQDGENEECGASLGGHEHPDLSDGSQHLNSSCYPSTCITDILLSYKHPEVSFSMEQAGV
Protocol: as §2, §3, §4

[1] = target: 335 wild-type protein kinases; experiment: single-point inhibition assays, residual activity (ProQinase Kinase Profiler); format: biochemical; details: single-point 0.1 uM and 1 uM, 335 kinases
Protocol: Several compounds of Formula (I) described herein were also tested in single-point (0.1 uM and 1 uM) inhibition assays over a diverse set of 335 wild-type protein (ProQinase “Kinase Profiler”; ProQinase, Freiburg, Germany), in which the residual activity of each kinase was determined. […] Secondly, the residual activity of each kinase was compared to other compounds tested (in particular, against the prior art compounds PY1) by use of scatter plots.

AML = details: administered intraperitoneally; Tarumoto et al 2020; cited from earlier work
Kinetic solubility assay = format: physicochemical; details: aqueous buffer, kinetic from dmso stock; PBS buffer pH 7.4, 1.0% DMSO, 24 h at RT
Protocol: The Kinetic solubility assay was conducted as follows. 4 uL compound of the 50 mM DMSO stock was added to deep well plate containing 396 uL PBS buffer (pH 7.4). The DMSO content in the sample was 1.0%, and the compound concentration 500 μM. The sample plate was vortexed at 800 rpm for 24 h at RT on a thermomixer. At the end of the incubation period, the sample plate was centrifuged at 4000 rpm for 10 mins. 3 uL of supernatant was transferred to well containing 297 uL of ISTD in Acetonitrile water:50:50, v/v and analysed in LC-MS/MS against a calibration curve (CC).

[2] = Mouse hepatocyte stability; format: in vitro ADME; details: mouse hepatocytes, 37°C
Protocol: (§5) Determination of human and mice hepatocyte stability was conducted as follows. 200 uL of the respective hepatocyte cell suspension (2×10e6/ml) was preincubated at 37° C. for 10 min. Then, 200 uL of a 2 uM working stock of the test compound was added to the hepatocyte cell suspension, and the mixture was further incubated at 37° C. and 500 rpm. The reaction was stopped at 30, 60 and 120 min by precipitating 50 uL of the incubation mixture with 200 uL of acetonitrile. Samples were vortexed for 5 min at 1200 rpm and centrifuged at 4000 rpm for 10 min. Intrinsic clearance and half-life were analysed using LC-MS/MS.
(§6) LC-MS/MS was performed for all assays using a C18 column (50*4.6 mm, 5 um) for the CaCo2 assay, or a C18 column (50*4.6 mm, 4 um) for the other assays. The mobile phases used were 10 mM Ammonium Acetate with 0.1% Formic acid (aqueous) and 100% Acetonitrile (organic).

[3] = CaCo2 permeability and efflux assay; format: in vitro ADME; details: human, Caco-2; CaCo2, mean efflux ratio
Protocol: (§7) To determine apparent permeability of the compounds an assay using a Caco-2 cells monolayer (cultured for 21d) in a 24-well format (poly carbonate high pore density plate with 0.4 μm pore size and a 0.7 cm2 active membrane area; Millipore) was performed as followed. 800 uL of DMEM was added to the basal compartment of the 24 well-plate and 60000 CaCo2 cells/well were seeded in the apical wells and incubated in a CO2 incubator at 37° C. for proliferation of cells. Apical to Basal permeability was determined by adding 400 uL of test compound to the apical well and 800 uL of HBSS buffer with 2% BSA to the basal well. 25 uL of basal sample was collected after 120 min and processed as stated below. Basal to Apical permeability was determined by adding 800 uL of test compound to basal well and 400 uL of HBSS buffer with 2% BSA to apical well. 25 uL of apical sample was collected after 120 min and processed as stated below. The samples were processed by diluting the donor samples 1:1 with HBSS containing 2% BSA and the receiver samples 1:1 with HBSS buffer. Samples were then precipitated with 200 uL of acetonitrile containing internal standard, vortexed for 5 min at 1000 rpm, and centrifuged at 4000 rpm for 20 min. 150 uL of supernatant was diluted with 150 uL of water and submitted for LC-MS/MS analysis, and Bi-directional (A-B and B-A) apparent permeability (Papp) was calculated.
as §6

Caco-2 cells monolayer = experiment: CaCo2 permeability and efflux assay; format: in vitro ADME; details: CaCo2, apical to basal, 120 min
Protocol: as §7, §6

[4] = Human hepatocyte stability; format: in vitro ADME; details: human hepatocytes, 37°C
Protocol: as §5, §6

[5] = Mouse liver microsomal stability; format: in vitro ADME; details: pH 7.4; mouse liver microsomes, NADPH, 37°C
Protocol: (§8) Briefly, human and liver microsomal stability was determined by pre-incubation of 2.5 uL compound and 75 uL of the respective liver microsomes in potassium phosphate buffer (pH 7.4) at 37° C. After adding of NADPH as cofactor and further incubation at 37° C. for 60 min, acetonitrile containing internal standard was added, and the sample was vortexed for 5 min at 1200 rpm and then centrifuged 10 min at 4000 rpm.
as §6

[6] = Murine plasma protein binding (RED method); format: in vitro ADME; details: mouse
Protocol: (§9) Human and mice protein plasma binding was determined using the Plasma Protein Binding by RED Method. Briefly, 200 uL of the respective plasma containing the test compound (10 uM) was spiked into the donor well (RED Chamber) of the insert. 350 uL of PBS was spiked into receiver well (white chamber). The plate was incubated at 37° C. in a thermomixer at 400 rpm for 5 hours. The samples were matrix equilibrated with opposite matrix (25 uL blank buffet/Plasma). Matrix matched samples were precipitated with 200 uL of Acetonitrile containing Internal standard. Samples were vortexed at 1000 rpm for 5 min and centrifuged at 4000 rpm for 10 min. The supernatant was diluted 2 folds with water and % bound and unbound protein and % recovery at 5 h was determined by LC-MS/MS.
as §6

[7] = Human liver microsomal stability; format: in vitro ADME; details: pH 7.4; human liver microsomes, NADPH, 37°C
Protocol: as §8, §6

[8] = Human plasma-protein binding (RED method); format: in vitro ADME
Protocol: as §9, §6

[9] = pharmacokinetic study, plasma level after single po or iv administration; format: in vivo, male CD1 mice; details: mice
Protocol: Screening PK properties of compounds of Formula (I) are additionally determined, including plasma and free plasma concentration, as well as Cmax. For example, the free concentration of compound after a dose of eg 30 mg/kg po (per os) administered mice can be determined for certain time points after administrations.
To further investigate PK properties of kinase inhibitors of Formula (I), the compounds are tested for in vivo drug exposure and potency in a full pharmacokinetic study with oral administration (per os, po).
The experimental procedure and the determination of the pharmacokinetic parameters are investigated after single administration of each compound per gavage in male CD1 mice (Intonation Research Laboratories (Hyderabad, India)). The compounds are diluted in 5% DMSO+5% Solutol+90% water. Plasma level (eg sampling 0.25 h; 0.5 h; 1 h; 1.5 h; 2 h; 4 h; 6 h; 12 h; 24 h after drug administration) of the compounds are analysed by LC-MS/MS and pharmacokinetic parameters are determined using non-compartmental analysis and nominal dose levels of eg 30 mg/kg po and 1 mg/kg iv. Three animals are analysed per time point and each mouse is used for three plasma samplings in total.

COc1ccc(N2C(=O)N(c3c(CF)csc3Cl)Cc3cnc(Nc4ccc(N5CCN(C)CC5)cc4)nc32)nc1 [AA6, 3-(2-chloro-4-(fluoromethyl)thiophen-3-yl)-1-(5-methoxypyridin-2-yl)-7-((4-(4-methylpiperazin-1-yl)phenyl)amino)-3,4-dihydropyrimido[4,5-d]pyrimidin-2(l H)-one]
sensitisation of PANC tumour cells to the cytotoxic effects of TNF compared to PY1 (PANC1 tumour cells; in words): stronger effect than PY1
IC50 (PANC1 tumour cells; read-out: PANC IC50 (at 100 ng/ml rHuTNF)): 100 to 500 nM
IC50 (SIK2): < 50 nM
inhibiting SIK2 compared to PY1 (SIK2; in words): superior in inhibiting SIK2 and SIK3 compared to PY1
IC50 (MC38 tumour cells; read-out: MC38 IC50 (at 100 ng/ml rMuTNF)): 500 to 1000 nM
toxicity against the cell lines in the absence of TNF (HCT116 and PANC1): essentially non-toxic
sensitisation of HCT116 tumour cells to the cytotoxic effect of TNF compared to PY1 (HCT116 tumour cells; in words): much stronger effect compared to the prior art compound PY1
IC50 (HCT116 tumour cells; read-out: HCT116 IC50 (at 10 ng/ml rHuTNF)): < 100 nM
IC50 (SIK3): < 50 nM
inhibiting SIK3 compared to PY1 (SIK3; in words): superior in inhibiting SIK2 and SIK3 compared to PY1

COc1ccc(N2C(=O)N(c3c(C)noc3C)Cc3cnc(Nc4ccc(C5CCN(C)CC5)cc4OC)nc32)nc1 [AA5, 3-(3,5-dimethylisoxazol-4-yl)-7-((2-methoxy-4-(1-methylpiperidin-4-yl)phenyl)amino)-1-(5-methoxypyridin-2-yl)-3,4-dihydropyrimido[4,5-d]pyrimidin-2(1H)-one]
kinases inhibited less strongly than by PY1 [1]: FYN, BTK, EPHB2, LCK and CSK
overall kinase profile compared to prior art compound PY1 [1]: potently inhibited far fewer kinases than prior art compound PY1
relevant kinases still potently inhibited [1]: TXK, ERBB4, EPHB1, FRK, BRK, EPHA4, ACK1, EGFR, EPHA1 and SIK1; also recorded: reasonably potent against CSF1R
IC50 (SIK2): 400 to 800 nM
toxicity against the cell lines in the absence of TNF (HCT116 and PANC1): essentially non-toxic
IC50 (SIK3): 800 to 1000 nM

COc1ccc(N2C(=O)N(c3c(C)cccc3Cl)Cc3cnc(Nc4ccc(C5CCN(C)CC5)cc4OC)nc32)nc1 [PY1, 3-(2-chloro-6-methylphenyl)-7-((2-methoxy-4-(1-methylpiperidin-4-yl)phenyl)amino)-1-(5-methoxypyridin-2-yl)-3,4-dihydropyrimido[4,5-d]pyrimidin-2(1H)-one, reference compound]
AML progression in-vivo (AML): suppressed AML progression in-vivo
IC50 (PANC1 tumour cells; Homo sapiens, PANC-1, read-out: PANC IC50 (at 100 ng/ml rHuTNF)): 500 to 1000 nM
solubility kinetic at 24 h (Kinetic solubility assay): 3.6 µM (≈ 2.16 µg/mL)
half-life at 1 uM [2]: 1.25 h
efflux ratio at 120 min [3]: 3.2
A > B(10 EE-06 cm/s) (Caco-2 cells monolayer): 9.5 10 EE-06 cm/s
half-life at 1 uM [4]: 10.7 h
half-life [5]: 1.45 h
IC50 (MC38 tumour cells; Mus musculus, MC-38, read-out: MC38 IC50 (at 100 ng/ml rMuTNF)): 500 to 1000 nM
recovery at 5 h, 10 uM [6]: 42%
half-life [7]: 2.57 h
recovery at 5 h, 10 uM [8]: 53%
compound detectable in plasma after 24 h ([9]; 1 mg/kg iv): No PY1 (the prior art compound YKL-05-099) was detectable after 24 h
compound detectable in plasma after 24 h ([9]; 30 mg/kg po): No PY1 (the prior art compound YKL-05-099) was detectable after 24 h
IC50 (HCT116 tumour cells; Homo sapiens, HCT-116, read-out: HCT116 IC50 (at 10 ng/ml rHuTNF)): 500 to 1000 nM
